From ChEMBL document CHEMBL1201862, “PubChem BioAssay data set” (2004)
Activity calls are given as the source filed them.

Columns and labels:
[1] = inhibitors of firefly luciferase expression or activity, dose response, H4 neuroglioma cells, luminescence (AID 1990); type: functional, cell-based
[2] = inhibitors of SNCA 5'UTR-driven reporter translation, confirmation, H4 neuroglioma cells, luminescence (AID 1988); type: functional, cell-based
BJ [3] = test: cells; type: functional, cell-based; details: Homo sapiens
BJ [4] = test: cytotoxicity toward BJ-TERT-LT-ST fibroblasts, dose response, cell-based, RAS-independent, luminescence (AID 1935); type: functional; details: Homo sapiens;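 note: BJ fibroblasts immortalized with TERT plus LT and ST oncogenes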
[5] = LGR2 antagonists, dose response, cell-based, HEK293, CRE-luciferase reporter, cherry pick, set 2 (AID 743343); type: functional;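 note: transfected cells were stimulated with diluted bursicon conditioned medium after compound addition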
BJ [6] = test: cytotoxicity toward Ras-transformed BJeLR fibroblasts, dose response, cell-based, alamar blue fluorescence, cherrypicked samples (AID 2631); type: functional; details: Homo sapiens;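 note: confirmatory dose-response assay in RAS-dependent BJ fibroblasts engineered with TERT, LT and ST, with cytotoxicity read by fluorescence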
[7] = cytotoxicity in HEK-293T NF-kB-Luc cells, dose response, cytotoxicity control for B/T-cell NF-kB inhibitor project, cell-based, uHTS hits (AID 489019); type: functional;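 note: IC50 reflects cytotoxicity as loss of cell viability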
[8] = HepG2 cell cytotoxicity, dose response, cytotoxicity control, plate reader, cherry-pick, antagonist series (AID 743416); type: functional, cell-based
[9] = A549 cell cytotoxicity, dose response, cytotoxicity control, plate reader, cherry-pick, antagonist series (AID 743412); type: functional, cell-based
BJ [10] = test: cytotoxicity toward BJ-TERT fibroblasts, dose response, cell-based, RAS-independent, luminescence (AID 1933); type: functional; details: Homo sapiens
[11] = MC4R antagonists, dose response, counter-screen for LGR2 antagonist project, cell-based, plate reader, cherry pick (AID 743444); type: functional;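 note: transfected HEK 293 cells stimulated with alpha-MSH peptide; potency of inhibitors of the alpha-MSH evoked signal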
[12] = HEK293 cell cytotoxicity, dose response, cytotoxicity control, plate reader, cherry-picked samples (AID 743446); type: functional, cell-based
cells = type: functional, cell-based
Jurkat = test: antigen receptor-induced NF-kB inhibitors, dose response, Jurkat, luciferase reporter, luminescence, B- and T-cell (AID 489004); type: functional, cell-based; details: Homo sapiens;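 note: NF-kB luciferase reporter Jurkat cells stimulated with PMA plus ionomycin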
[13] = target: T1, Heat shock factor protein 1 (Mus musculus, UniProt P38532); test: inhibition of MG132-induced HSE-luciferase signal, confirmation, cell-based, NIH3T3, luminescence, dose retest (AID 2382); type: functional;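 note: NIH3T3 fibroblasts with HSF1-driven luciferase reporter stressed by proteasome inhibitor MG132; luminescence from HSF1-driven luciferase expression after 8 hours of MG132 stress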
T1 sequence (P38532 whole entry): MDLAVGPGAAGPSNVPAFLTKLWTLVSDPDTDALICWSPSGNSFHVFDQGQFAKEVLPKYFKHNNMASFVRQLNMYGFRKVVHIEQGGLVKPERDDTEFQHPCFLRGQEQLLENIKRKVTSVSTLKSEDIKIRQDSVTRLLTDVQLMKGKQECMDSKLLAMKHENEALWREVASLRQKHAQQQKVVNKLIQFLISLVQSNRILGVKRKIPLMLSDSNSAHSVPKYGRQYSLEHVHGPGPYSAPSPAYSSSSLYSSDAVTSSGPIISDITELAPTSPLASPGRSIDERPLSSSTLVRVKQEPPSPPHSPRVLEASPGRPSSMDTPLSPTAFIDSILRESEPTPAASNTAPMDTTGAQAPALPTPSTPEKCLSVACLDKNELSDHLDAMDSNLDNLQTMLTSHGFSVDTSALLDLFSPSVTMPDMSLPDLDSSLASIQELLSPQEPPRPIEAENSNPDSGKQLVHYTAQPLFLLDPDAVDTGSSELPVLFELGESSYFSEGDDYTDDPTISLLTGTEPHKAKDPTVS

[14] = cytotoxicity toward DRD oncogenic fibroblasts, dose response, cell-based, non-viral oncogenic, luminescence (AID 1934); type: functional; details: Homo sapiens
[15] = inhibitors of SNCA 5'UTR-driven translation, confirmation, luminescence, H4 neuroglioblastoma cells, dose confirmation (AID 2454); type: functional, cell-based;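 note: H4 neuroglioblastoma cells carrying an alpha-synuclein 5'UTR luciferase reporter; potency for inhibition of the luciferase signal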
[16] = luciferase reporter signal reduction – luminescence, H4-C neuroglioblastoma cells, dose response (AID 2458); type: functional, cell-based;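 note: H4 neuroglioblastoma cells stably carrying a luciferase reporter gene fusion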
CAAX prenyl protease 1 = CAAX prenyl protease 1 (Saccharomyces cerevisiae S288c, UniProt P47154); test: Ste24 protease inhibitors, dose response, biochemical, S. cerevisiae, plate reader, cherry-pick (AID 488815)
[17] = ADAM10 inhibitors, peptide cleavage, dose response, biochemical, QFRET (AID 743254);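 note: ADAM10 enzyme with the DM2 quenched FRET peptide as substrate; EDANS fluorescence gain as the protease cuts the substrate; inhibitor potency against ADAM10 proteolytic activity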
CAAX prenyl protease 2 = target: T2, CAAX prenyl protease 2 (Saccharomyces cerevisiae S288c, UniProt Q03530); type: biochemical
T2 sequence (Q03530 whole entry): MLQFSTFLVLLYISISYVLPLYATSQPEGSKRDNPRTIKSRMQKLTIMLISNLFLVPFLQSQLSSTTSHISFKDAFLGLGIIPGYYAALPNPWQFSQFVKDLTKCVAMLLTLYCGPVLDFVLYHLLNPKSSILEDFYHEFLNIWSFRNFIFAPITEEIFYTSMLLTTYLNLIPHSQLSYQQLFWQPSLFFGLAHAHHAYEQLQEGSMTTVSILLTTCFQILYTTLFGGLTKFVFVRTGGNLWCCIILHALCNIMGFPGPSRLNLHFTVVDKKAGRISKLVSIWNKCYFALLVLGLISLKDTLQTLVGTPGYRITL

Paired box protein Pax-8 = Paired box protein Pax-8 (Homo sapiens, UniProt Q06710); test: inhibitors of PAX8-driven TPO luciferase reporter, dose response, RMG-I cells, cherry-pick (AID 687027); type: functional, cell-based;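 note: luciferase reporter driven by Pax8 target thyroperoxidase promoter measured by SteadyGlo luminescence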
[18] = target: Disintegrin and metalloproteinase domain-containing protein 17 (Homo sapiens, UniProt P78536); test: ADAM17 protease inhibitors, dose response, counter-screen for ADAM10 exosite inhibitor project, biochemical, quenched FRET substrate (AID 743253)
[19] = inhibitors of Trypanosoma cruzi host-cell infection, confirmation, beta-gal luminescence, NIH3T3 host cells (AID 2630); type: functional, cell-based; details: Mus musculus
[20] = Luminescence Cell-Based Secondary HTS screen to identify cytotoxic compounds of NIH3T3 cells. [Related pubchem assays: 1885, 1968 ]; type: functional
[21] = Luminescence Cell-Based/Microorganism Confirmation at Dose of Inhibitors of Trypanosoma cruzi Infection. [Related pubchem assays: 1885, 1968 ]; type: functional

Sequence of CAAX prenyl protease 1 (P47154 whole entry): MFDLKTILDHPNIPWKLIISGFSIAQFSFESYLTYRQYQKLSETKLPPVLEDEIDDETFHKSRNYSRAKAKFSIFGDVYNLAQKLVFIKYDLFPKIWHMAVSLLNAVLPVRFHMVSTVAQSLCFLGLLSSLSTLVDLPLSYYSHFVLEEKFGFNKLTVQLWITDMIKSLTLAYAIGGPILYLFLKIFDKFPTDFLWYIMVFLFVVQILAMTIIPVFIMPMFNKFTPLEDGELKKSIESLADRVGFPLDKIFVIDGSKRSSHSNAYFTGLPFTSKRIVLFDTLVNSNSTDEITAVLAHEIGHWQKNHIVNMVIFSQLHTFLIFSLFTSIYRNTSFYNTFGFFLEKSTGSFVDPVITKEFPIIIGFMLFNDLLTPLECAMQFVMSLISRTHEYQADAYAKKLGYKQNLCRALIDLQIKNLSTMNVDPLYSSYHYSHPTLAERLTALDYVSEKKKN
Sequence of Disintegrin and metalloproteinase domain-containing protein 17 (P78536 whole entry, the tested form may be a part): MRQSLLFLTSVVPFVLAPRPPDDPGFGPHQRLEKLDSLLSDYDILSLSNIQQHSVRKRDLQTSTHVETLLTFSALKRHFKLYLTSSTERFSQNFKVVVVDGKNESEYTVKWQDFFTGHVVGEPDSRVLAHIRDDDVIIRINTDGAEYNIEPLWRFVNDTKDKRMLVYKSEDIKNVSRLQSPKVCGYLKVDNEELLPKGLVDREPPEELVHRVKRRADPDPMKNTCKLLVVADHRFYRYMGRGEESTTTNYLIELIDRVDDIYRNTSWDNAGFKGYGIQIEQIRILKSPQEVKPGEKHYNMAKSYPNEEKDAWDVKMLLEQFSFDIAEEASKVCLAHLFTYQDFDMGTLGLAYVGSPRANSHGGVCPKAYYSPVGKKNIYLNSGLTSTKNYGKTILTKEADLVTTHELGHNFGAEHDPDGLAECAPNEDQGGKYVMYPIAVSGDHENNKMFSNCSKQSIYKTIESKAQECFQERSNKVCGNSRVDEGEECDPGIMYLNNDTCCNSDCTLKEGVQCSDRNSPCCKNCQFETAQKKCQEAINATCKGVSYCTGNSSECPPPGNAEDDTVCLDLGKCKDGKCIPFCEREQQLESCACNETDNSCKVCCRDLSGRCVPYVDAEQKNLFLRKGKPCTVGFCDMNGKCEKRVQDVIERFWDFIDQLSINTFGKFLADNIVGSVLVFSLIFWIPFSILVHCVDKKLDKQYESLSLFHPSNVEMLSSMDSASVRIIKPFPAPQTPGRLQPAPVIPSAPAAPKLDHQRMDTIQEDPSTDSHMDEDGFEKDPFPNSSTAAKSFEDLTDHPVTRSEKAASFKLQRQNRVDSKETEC
Sequence of Paired box protein Pax-8 (Q06710 whole entry, the tested form may be a part): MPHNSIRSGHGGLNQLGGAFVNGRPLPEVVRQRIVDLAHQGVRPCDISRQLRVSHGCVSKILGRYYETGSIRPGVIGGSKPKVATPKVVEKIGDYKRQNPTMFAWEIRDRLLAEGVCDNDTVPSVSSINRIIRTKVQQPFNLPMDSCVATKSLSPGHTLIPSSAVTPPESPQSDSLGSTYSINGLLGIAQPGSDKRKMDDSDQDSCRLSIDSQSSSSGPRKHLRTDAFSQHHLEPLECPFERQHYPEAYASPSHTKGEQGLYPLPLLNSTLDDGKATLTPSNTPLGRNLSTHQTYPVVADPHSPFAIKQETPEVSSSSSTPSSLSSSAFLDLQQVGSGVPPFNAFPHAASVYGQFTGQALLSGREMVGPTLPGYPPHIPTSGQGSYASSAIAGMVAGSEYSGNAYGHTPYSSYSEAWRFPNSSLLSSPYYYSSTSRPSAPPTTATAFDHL

Nc1ncnc2c1ccn2[C@@H]1O[C@H](CO)[C@@H](O)[C@H]1O [TUBERCIDIN]
EC50 [1]: < 100 nM (active) | EC50 [2]: < 100 nM (active) | EC50 (BJ [3]): 5450 nM (inconclusive) | EC50 (BJ [4]): 5040 nM (active) | AC50 [5]: 2770 nM (active) | EC50 (BJ [6]): < 104 nM (active) | IC50 [7]: > 80000 nM (inactive) | AC50 [8]: 250 nM (active) | AC50 [9]: 91.2 nM (active) | EC50 (BJ [10]): 2080 nM (inconclusive) | AC50 [11]: 3980 nM (active) | AC50 [12]: 1600 nM (active) | EC50 (cells): 223 nM (active) | IC50 (Jurkat): 7830 nM (active) | EC50 [13]: 3060 nM (active) | EC50 [14]: 4120 nM (active) | EC50 [15]: 204 nM (active) | EC50 [16]: 252 nM (active)

NC(=O)[C@H]1CC2(CC(c3cccc(NC(=O)COc4ccc(Cl)cc4)c3)=NO2)CN1C(=O)C(c1ccccc1)c1ccccc1 (stereo partly specified)
AC50 (CAAX prenyl protease 1): 5730 nM (active) | IC50 [17]: > 69500 nM (inactive) | AC50 (CAAX prenyl protease 2): 2680 nM (active) | AC50 (Paired box protein Pax-8): 15700 nM (active) | IC50 [18]: > 69500 nM (inactive)

Fc1ccc(CCNCc2ccc(Cl)c(Cl)c2)cc1
EC50 [19]: 915 nM (active) | EC50 [20]: > 195000 nM (not active) | EC50 [21]: 915 nM (active)
